Source: article PMC12052742, “Engineering a newly identified alcohol dehydrogenase from Sphingobium Sp. for efficient utilization of nicotinamide cofactors biomimetics” (Bioresources and Bioprocessing, 2025)

Experiments:
SpADH2 [1] = experiment: Substrate spectrum (spectrophotometric specific activity, fluorescent probe); type: biochemical, Sphingobium sp. SYK-6; settings: substrate 5 mM, 1 h; for specific activity of SpADH2 toward the substrate: cofactor NAD^+ 2 mM, 0.05 µg SpADH2, pH 7.5, 30℃; for substrate preference of SpADH2 (in words): cofactor p-BANA^+ 7.5 mM, 5 µg SpADH2, pH 7.5, 30℃
Procedure: Fig. 3 Substrate spectrum of SpADH2 utilizing (a) NAD^+ and (b) p-BANA^+. The darkness of the background color for each substrate stands for the activity of SpADH2 with NAD^+ (purple) or p-BANA^+ (cyan) as cofactor. The evaluation of substrate spectrum of SpADH2 was carried out under following conditions: 50 mM PBS buffer (pH 7.5) and 30℃, with 1a (5 mM) as substrate. For NAD^+(2 mM), 0.05 µg SpADH2 was added, and for p-BANA^+(7.5 mM), 5 µg SpADH2 was added. After 1 h, reactions were visualized by 0.2 mM florescent probes (2-[2-(1,4-dihydro-1-methyl-3-quinolinyl)ethenyl]-1,3,3-trimethyl-3H-indolium)
(§1) Specific activity of SpADH2 in substrate spectrum study was measured spectrophotometrically. PBS (pH 7.5) buffer was pre-heated at 30°C for 15 min. For NAD^+, 0.05 µg SpADH2 was added to the PBS buffer (100 µL), and a final concentration of 2 mM NAD^+ was added. For tsNCBs cofactor p-BANA^+, 5 µg SpADH2 and a final concentration of 7.5 mM p-BANA^+ was added. The mixture was carried out in a 96-well microplate, and a final concentration of 5 mM substrate was added to start the reaction. The microplate was incubated in 30°C for 1 h. Florescent probes (2-[2-(1,4-dihydro-1-methyl-3-quinolinyl)ethenyl]-1,3,3-trimethyl-3H-indolium) in a final concentration of 0.2 mM (100 µL) was added (Scheme S1), and the microplate was placed in a microplate reader immediately for measurement under 537 nm (Fomin et al. [2016]).
One unit of enzyme activity is defined as the amount of enzyme required to form 1 µmol of reduced florescent probes per minute at pH 7.5 and 30°C. Each reaction was repeated in triplet. Same reaction without substrate was used as a blank control. The molar absorbance coefficient (ε) was detected as […] with NADH as the reduced cofactor and 60,801 µM^− 1·cm^− 1 with p-BANAH as the reduced cofactor.

SpADH2 [2] = experiment: Preliminary evaluation of NCB usage in oxidation of syringyl alcohol (HPLC); type: biochemical, Sphingobium sp. SYK-6; settings: preliminary assay: 1a 1 mM, NCB 10 mM, pH 7.0, 30℃, 1 h
Procedure: Sphingobium sp. SYK-6 belongs to genus Sphingomonas, and a search in UniProtKB identified 19 ADHs from this strain, including 5 PQQ-dependent and the remaining NAD^+/NADP^+-dependent enzymes. Two sequences annotated as aryl-alcohol dehydrogenases (SLG_34580 and SLG_24930) (Table. S1) were selected for heterologous expression (Fig. S1) and named SpADH1 and SpADH2, respectively. Their ability to utilize NCBs was assessed by oxidation of syringyl alcohol (1a) to produce syringaldehyde (1b) (Fig. 1a).
Fig. 1 (a) Reaction scheme of SpADH2-catalyzed oxidation of syringyl alcohol. (b) Specific activity of SpADH2 toward four NCBs. The evaluation of NCBs usage by SpADH2 was carried out under following conditions: 50 mM PBS buffer (pH 7.0) and 30℃, with 1a (1 mM) as substrate and 4 typical NCBs (10 mM) as cofactor. A total of 0.1 mg/mL enzyme was added to a 200 µL reaction mixture, and was analyzed by HPLC after 1 h reaction
Reaction samples were analyzed using Agilent 1260 Infinity II LC system under reversed phase condition. Column: Agilent C18 column. Analytical conditions for 1a and 1b: mobile phase: 50% water: 50% acetonitrile. The retention time for standard product 1b was 3.27 min, under flow rate of 1 mL·min^− 1and temperature of 30°C (Fig. S4).

[3] = system: SpADH2 variants (H43L, A290I, H43L/A290I); experiment: Cofactor spectrum (HPLC specific activity), all variants together; type: biochemical, Sphingobium sp. SYK-6; settings: 1a 5 mM, cofactor 7.5 mM, pH 7.5, 30℃
Procedure: (§2) Fig. 8 Cofactor spectrums of SpADH2 and its variants. The darkness of color for each cofactor stands for the activity. For each cofactor cube, top left: WT, top right: H43L, bottom left: A290I, bottom right: H43L/A290I. (a) Natural cofactors and NMN^+ are shown in purple. (b) tsNCBs are shown in cyan. The evaluation of cofactor spectrum was carried out under following conditions: 50 mM PBS buffer (pH 7.5) and 30℃, with 1a (5 mM) as substrate and different cofactors (7.5 mM) as cofactor. For NAD(P)^+ and NMN^+, 0.05 µg enzyme was added, and for tsNCBs, 5 µg enzyme was added. The results were analyzed by HPLC after 1 h reaction
(§3) Specific activity of SpADH2 in cofactor spectrum study was determined by HPLC analysis. PBS (pH 7.5) buffer was pre-heated at 30°C for 15 min. For NAD(P)^+ and NMN^+, 0.05 µg SpADH2 was added to PBS buffer (100 µL). For tsNCBs, 5 µg SpADH2 was added. A final concentration of 7.5 mM cofactor was added to the reaction mixture. Finally, a final concentration of 5 mM substrate was added to start the reaction. The reactions were conducted at 30°C.
(§4) One unit of enzyme activity is defined as the amount of enzyme required to form 1 µmol 1b per minute at pH 7.5 and 30°C. Same reaction without cofactor was used as a blank control.

SpADH2 [4] = experiment: Cofactor spectrum of syringyl alcohol oxidation (HPLC specific activity), WT; type: biochemical, Sphingobium sp. SYK-6; settings: 1a 5 mM, cofactor 7.5 mM, pH 7.5, 30℃; for decrease in activity compared with NAD^+ as cofactor: 0.05 µg SpADH2
Procedure: Fig. 2 Cofactor spectrum of syringyl alcohol oxidation catalyzed by SpADH2. The darkness of the background color for each cofactor stands for the activity of SpADH2 utilizing various cofactors. (a) NAD(P) ^+ and NMN^+ are shown in purple background. (b) tsNCBs are shown in cyan background. The evaluation of cofactor spectrum of SpADH2 was carried out under following conditions: 50 mM PBS buffer (pH 7.5) and 30℃, with 1a (5 mM) as substrate and different cofactors (7.5 mM) as cofactor. For NAD(P)^+ and NMN^+, 0.05 µg SpADH2 was added, and for tsNCBs, 5 µg SpADH2 was added. The results were analyzed by HPLC after 1 h reaction
as §3, §4

SpADH2 variant H43L [5] = experiment: Cofactor kinetic assay, H43L; type: biochemical, Sphingobium sp. SYK-6; settings: cofactor (= label) varied, 1a fixed at 5 mM
Procedure: as §1
(§5) Kinetic analysis of SpADH2 and its variants were carried out following Michaelis-Menten equation or Michaelis-Menten excess substrate inhibition equation. For of the substrate kinetic assays, concentrations of cofactors were fixed at 5 mM for NAD^+ and 7.5 mM for p-BANA^+. For cofactor kinetic assays, the concentration of 1a was fixed at 5 mM.
(§6) Specific activity was determined spectrophotometrically as above except that gradient 1a (0−20 mM) or cofactor (0−35 mM) concentrations were applied.
(§7) Cofactor specificity ratio (CSR) represents the ratio of catalytic efficiency of p-BANA^+ to NAD^+ for each enzyme, and relative specificity (RS) stands for the CSR ratio of variants to WT (King et al. [2020]).

SpADH2 variant A290I [6] = experiment: Substrate kinetic assay, A290I; type: biochemical, Sphingobium sp. SYK-6
Procedure: as §1, §5, §6, §7

SpADH2 WT [7] = target: T1, SpADH2 WT (Sphingobium sp. SYK-6, UniProt G2IIZ8); experiment: Substrate kinetic assay, WT; type: biochemical; settings: 1a varied, cofactor (= label) fixed: 5 mM NAD^+ or 7.5 mM p-BANA^+
T1 sequence (G2IIZ8 1-372): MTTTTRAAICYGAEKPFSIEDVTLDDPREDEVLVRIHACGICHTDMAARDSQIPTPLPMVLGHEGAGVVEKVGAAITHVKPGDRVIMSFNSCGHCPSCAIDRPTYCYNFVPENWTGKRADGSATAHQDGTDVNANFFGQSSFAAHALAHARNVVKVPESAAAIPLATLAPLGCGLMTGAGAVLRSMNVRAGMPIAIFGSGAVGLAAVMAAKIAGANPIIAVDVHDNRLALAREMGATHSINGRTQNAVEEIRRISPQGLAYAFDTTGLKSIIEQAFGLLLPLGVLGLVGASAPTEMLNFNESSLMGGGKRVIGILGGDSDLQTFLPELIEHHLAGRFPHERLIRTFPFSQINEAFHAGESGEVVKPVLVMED
Procedure: as §1, §5, §6, §7

SpADH2 variant A290I [8] = experiment: Cofactor kinetic assay, A290I; type: biochemical, Sphingobium sp. SYK-6
Procedure: as §1, §5, §6, §7

SpADH2 variant H43L [9] = experiment: Substrate kinetic assay, H43L; type: biochemical, Sphingobium sp. SYK-6; settings: 1a varied, cofactor (= label) fixed: 5 mM NAD^+ or 7.5 mM p-BANA^+
Procedure: as §1, §5, §6, §7

SpADH2 WT [10] = target: T1, SpADH2 WT; experiment: Cofactor kinetic assay, WT; type: biochemical; settings: cofactor (= label) varied, 1a fixed at 5 mM
Procedure: as §1, §5, §6, §7

[11] = system: SpADH2 variant H43L/A290I; experiment: Cofactor kinetic assay, H43L/A290I; type: biochemical, Sphingobium sp. SYK-6; settings: cofactor (= label) varied, 1a fixed at 5 mM
Procedure: as §1, §5, §6, §7

[12] = system: SpADH2 variant H43L/A290I; experiment: Substrate kinetic assay, H43L/A290I; type: biochemical, Sphingobium sp. SYK-6
Procedure: as §1, §5, §6, §7

SpADH2 variant A290I [13] = experiment: Cofactor spectrum (HPLC specific activity), variant A290I; type: biochemical, Sphingobium sp. SYK-6; settings: 1a 5 mM, cofactor 7.5 mM, pH 7.5, 30℃, 5 µg enzyme, 1 h
Procedure: as §2, §3, §4

[14] = 1a varied, cofactor (= label) fixed: 5 mM NAD^+ or 7.5 mM p-BANA^+
[15] = substrate kinetics, cofactor = label

OCc1ccsc1 [3-thiophenemethanol]
specific activity of SpADH2 toward the substrate (SpADH2 [1]): 4.78 U/mg | substrate preference of SpADH2 (in words) (SpADH2 [1]): No significant preference

NC(=O)c1ccc[n+](Cc2ccccc2)c1 [BNA^+, 1-benzyl-3-carbamoylpyridin-1-ium]
utilization of the NCB by SpADH2 (in words) (SpADH2 [2]): Appreciable activity

NC(=O)c1ccc[n+]([C@@H]2O[C@H](COP(=O)(O)OP(=O)([O-])OC[C@H]3O[C@@H](n4cnc5c(N)ncnc54)[C@H](OP(=O)(O)O)[C@@H]3O)[C@@H](O)[C@H]2O)c1 [NADP^+, reference compound]
catalytic activity of all variants with the cofactor (in words) [3]: relatively lower catalytic activity | decrease in activity compared with NAD^+ as cofactor (SpADH2 [4]): roughly 50%

NC(=O)c1ccc[n+]([C@@H]2O[C@H](COP(=O)([O-])OP(=O)(O)OC[C@H]3O[C@@H](n4cnc5c(N)ncnc54)[C@H](O)[C@@H]3O)[C@@H](O)[C@H]2O)c1 [NAD^+, reference compound]
kcat (SpADH2 variant H43L [5]): 57.8 ± 1.2 min^− 1 | Km (SpADH2 variant H43L [5]; pH 7.5, 30°C): 99 ± 8 µM | kcat (SpADH2 variant A290I [6]; [14]): 41.4 ± 1.4 min^− 1 | substrate inhibition (in words) (SpADH2 variant A290I [6]; [15]): no substrate inhibition was observed | catalytic activity of all variants with the cofactor (in words) [3]: relatively lower catalytic activity | specific activity of SpADH2 with the cofactor (SpADH2 [4]; 0.05 µg SpADH2, 1 h): 4.40 U/mg | kcat (SpADH2 WT [7]): 134 ± 2.9 min^− 1 | kcat (SpADH2 variant A290I [8]; cofactor (= label) varied, 1a fixed at 5 mM): 28.3 ± 0.6 min^− 1 | Km (SpADH2 variant A290I [8]; cofactor (= label) varied, 1a fixed at 5 mM, pH 7.5, 30°C): 9 ± 1 µM | fold higher catalytic efficiency (kcat/Km) than WT (SpADH2 variant A290I [8]; cofactor kinetics, cofactor = label): 1.5 fold | kcat (SpADH2 variant H43L [9]): 102 ± 2.3 min^− 1 | kcat (SpADH2 WT [10]): 58.7 ± 1.5 min^− 1 | kcat [11]: 12.6 ± 0.2 min^− 1 | Km ([11]; pH 7.5, 30°C): 365 ± 25 µM | kcat [12, 14]: 18.9 ± 0.2 min^− 1 | fold improvement in substrate inhibition (Ki) vs WT [12, 15]: up to 9 fold

NC(=O)c1ccc[n+]([C@@H]2O[C@H](COP(=O)([O-])O)[C@@H](O)[C@H]2O)c1 [NMN^+, nicotinamide mononucleotide, reference compound]
catalytic activity of all variants with the cofactor (in words) [3]: relatively lower catalytic activity | decrease in activity compared with NAD^+ as cofactor (SpADH2 [4]): roughly 50%

OCc1ccccc1 [benzyl alcohol]
specific activity of SpADH2 toward the substrate (SpADH2 [1]): 4.71 U/mg | substrate preference of SpADH2 (in words) (SpADH2 [1]): No significant preference

NC(=O)c1ccc[n+](Cc2cccc(C(=O)O)c2)c1 [m-BANA^+, meta-3-carbamoyl-1-(3-carboxybenzyl)pyridin-1-ium]
catalytic activity of all variants with the cofactor (in words) [3]: highest activity | catalytic activity with the tsNCB as cofactor (SpADH2 variant A290I [13]): 118.11 U/g
